Assay results as given in PMC2854128, “A Target-Based High Throughput Screen Yields Trypanosoma brucei Hexokinase Small Molecule Inhibitors with Antiparasitic Activity” (PLoS Neglected Tropical Diseases, 2010).
“And” between values parts separate entries of the source, which are not always exact repeats. Equal values may be shown once. Read-outs that look alike come from different tables or passages of the source.

Tests used:
[1] = tested on: BSF T. brucei parasites (cell line 90-13, a 427 strain); experiment: T. brucei BSF viability assay (CellTiter Blue); assay type: cell-based, Trypanosoma brucei; conditions: for EC50: Trypanosoma brucei; for Toxicity to BSF at 10 µM: cell density after 72 hr
Description: CellTiter Blue (Promega, Madison WI) was added (20 µl) and the plates incubated an additional 3 hr under standard culture conditions.

TbHK1 [2] = target: T1, TbHK1 (Trypanosoma brucei brucei, UniProt Q38C42); experiment: Kinetic analysis of TbHK1 inhibition with respect to ATP (Lineweaver-Burk); assay type: biochemical
T1 sequence (Q38C42 entry or part of it): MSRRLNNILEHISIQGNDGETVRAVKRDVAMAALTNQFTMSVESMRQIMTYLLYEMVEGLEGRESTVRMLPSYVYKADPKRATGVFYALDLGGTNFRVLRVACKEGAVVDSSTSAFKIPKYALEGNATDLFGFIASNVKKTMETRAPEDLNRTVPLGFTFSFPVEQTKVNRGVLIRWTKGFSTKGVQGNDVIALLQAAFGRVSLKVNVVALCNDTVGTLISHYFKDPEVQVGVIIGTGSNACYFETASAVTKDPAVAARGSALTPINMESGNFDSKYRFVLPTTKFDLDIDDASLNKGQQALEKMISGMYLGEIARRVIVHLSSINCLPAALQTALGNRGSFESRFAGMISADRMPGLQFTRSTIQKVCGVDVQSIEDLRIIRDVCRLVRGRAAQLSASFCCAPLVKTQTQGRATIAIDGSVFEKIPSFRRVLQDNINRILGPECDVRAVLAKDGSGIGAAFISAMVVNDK
Description: (§1) Parasite lysates from BSF parasites were prepared by incubation (5 min on ice) of 1.5×10^7 cells in lysis buffer (0.1 M TEA, pH 7.4, and 0.1% Triton X-100) supplemented with 1 mM PMSF, 5 µg/ml leupeptin, and 100 µg/ml TLCK. In triplicate, cell equivalents (2×10^5) were incubated with increasing concentrations of inhibitor for 15 minutes at RT prior to initiation of the coupled reaction. In short, the 200 µl reactions included 50 mM TEA, pH 7.4, 33 mM MgCl2, 20 mM glucose, 5.25 mM ATP, 0.75 mM NADP, and 0.1 units of G6PDH, with kinetic analyses performed using KaleidaGraph 4.1 (Synergy Software, Reading, PA).
Assays were performed as described for cell lystates (see Materials and Methods) with ATP concentrations varied.

[3] = tested on: PF T. brucei parasites (29-13, a 427 strain); experiment: Procyclic form (PF) parasite growth assay; assay type: cell-based; conditions: Trypanosoma brucei, A-427, 48 h, read-out: % PF Growth Inhibition (10 µM)
Description: Plates were then incubated for 1 hr under standard culture conditions. Fluorescence of samples was then characterized as above.

[4] = target: T. brucei lysate-derived TbHK1 (Trypanosoma brucei brucei, UniProt Q38C42); experiment: Inhibition assay of lysate-derived TbHK; assay type: biochemical; conditions: read-out: IC50 against T. brucei lysate-derived TbHK1 enzymatic activity; 2×10^5 BSF cell equivalents, 15 min preincubation at RT
Sequence of T. brucei lysate-derived TbHK1 (Q38C42 entry or part of it): as above
Description: as §1

[5] = target: T2, human HK 4 (human glucokinase, hGlk) (Homo sapiens, UniProt P35557); experiment: Specificity assay against human HK 4 (human glucokinase, hGlk); assay type: biochemical; conditions: for inhibition at 10 µM: read-out: % Inhibition of hGlck (10 µM)
T2 construct: His tag (from pQE30); made in house; host or cells: E. coli M15 (pREP)
T2 sequence (P35557 1-465): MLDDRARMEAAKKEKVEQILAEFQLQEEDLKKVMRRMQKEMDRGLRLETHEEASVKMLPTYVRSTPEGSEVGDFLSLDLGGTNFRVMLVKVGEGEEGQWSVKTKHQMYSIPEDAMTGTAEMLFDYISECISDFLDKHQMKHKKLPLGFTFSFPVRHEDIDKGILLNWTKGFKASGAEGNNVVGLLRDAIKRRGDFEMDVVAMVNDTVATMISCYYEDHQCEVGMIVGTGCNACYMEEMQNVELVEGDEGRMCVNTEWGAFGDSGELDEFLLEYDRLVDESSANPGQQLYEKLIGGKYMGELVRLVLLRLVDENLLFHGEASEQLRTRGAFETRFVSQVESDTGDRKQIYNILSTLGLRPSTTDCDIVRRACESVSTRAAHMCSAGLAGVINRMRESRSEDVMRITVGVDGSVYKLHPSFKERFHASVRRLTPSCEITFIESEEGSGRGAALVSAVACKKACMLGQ
Description: Additional specificity assays were performed using human HK 4 (human glucokinase, hGlk, GenBank accession no. BC001890) that was expressed from a cloned cDNA (OPEN Biosystems, Huntsville, AL) in pQE30.

[6] = cited from earlier work
Leishmania promastigotes = experiment: Leishmania promastigote specificity assay; assay type: cell-based, L. major; conditions: 44 h
Description: Cell-based specificity assays were performed as previously described. Briefly, mammalian cell line and Leishmania promastigote assays were performed in final volumes of 25 µL using our previously described 384-well microtiter format. All mammalian cell lines were cultured and maintained in complete growth medium preparations according to ATCC specifications (ATCC, Manassas, VA). Leishmania promastigotes were cultured as previously described. […] Vehicle and positive controls were 1% and 10% DMSO, respectively. For mammalian cells, assay plates were incubated for 44–46 h at 37°C in the presence of 5% CO2 and for the Leishmania promastigotes, assay plates were incubated for 44 h at 28°C with 5% CO2. Five µL of CellTiter Blue reagent was added to each assay plate well and incubated for 2–4 h at 37°C with 5% CO2. Data were captured on a Molecular Devices SpectraMax M5 (excitation A560; emission A590).

TbHK1 [7] = target: T1, TbHK1; experiment: TbHK1 coupled enzyme HTS assay (G6PDH coupled, bacterially expressed rTbHK1); assay type: biochemical; conditions: for Fold less potent upon resupply (TbHK1 IC50 versus cherry-picked compound): resupplied versus cherry-picked compound
Description: For purification of bacterially expressed TbHK1 (rTbHK1), a previously described protocol was modified to increase yield. Briefly, a starter culture of E. coli M15(pREP) harboring pQE30 (Qiagen, Valencia, CA) with the TbHK1 gene cloned in frame of a 6-His tagging sequence was grown in ECPM1 [9] and then inoculated into a 5 L bioreactor (Biostat B, B. Braun Biotech International, Allentown, PA) and grown at 37°C. At OD600 between 3–5, the culture was induced with IPTG (0.8 mM), grown without supplement O2 (37°C, 16 hr), and cells collected by centrifugation (5000×g, 20 min, 4°C). The pellet was resuspended in lysis buffer (50 mM NaPO4, pH 8.1, 5 mM glucose, 150 mM NaCl, and 0.1% Tween) and lysed by using a cell disruptor (Constant Cell Disruption Systems, Sanford, NC). The resulting supernatant was applied (5 ml/min) to a 50 ml ProBind column (Invitrogen, Eugene, OR) on a FPLC (GE Lifesciences, Piscataway, NJ) and protein eluted by gradient (5 to 250 mM imidazole) in lysis buffer. Fractions were screened using HK activity assays and Western blotting and those containing rTbHK1 were pooled, concentrated, and applied to a HiTrap SP HP column (GE Lifesciences, Piscataway, NJ).
TbHK1 assays were an adaptation of a coupled enzyme HK assay to a 384-well format, [10]. Briefly, test and control compounds (30 µM in 15 µL volume) were added to a 384 well black, opaque microtiter plate using a Velocity 11 V-prep (Santa Clara, CA) for a final test compound concentration of 10 µM. […] The 45 µL reaction mixture was incubated at RT for 2 hr and then quenched with 5 µL EDTA (500 mM). The resulting signal, which remained stable for up to 5 hr after addition of stop reagent, was collected on a Molecular Devices SpectraMax M5 (absorbance at OD340)(Sunnyvale, CA).

[8] = tested on: cellular G6P levels in BSF parasites; experiment: Cellular G6P levels in BSF parasites grown with compound; assay type: cell-based, Trypanosoma brucei
TbHK1 [9] = target: T1, TbHK1; parameters: method as in Lyda and Morris, unpublished; conditions: previously identified inhibitor; ref Lyda and Morris, unpublished; cited from earlier work
[10] = A-427, bloodstream form parasites, 3 days (72 hr), read-out: BSF EC50
[11] = procyclic form parasites, 10 µM, 2 days
[12] = promastigotes, read-out: L. major EC50
[13] = resupplied compound, bacterially expressed TbHK1, read-out: IC50 (µM) Resupply
[14] = A-427, 72 h, read-out: BSF EC50 (µM)

| SMILES | EC50 [1, 10] | inhibition at 10 µM [3, 11] | inhibition at 10 µM ([5]; 10 µM compound) | EC50 (Leishmania promastigotes; [12]) | IC50 (TbHK1 [7]; [13]) | Toxicity to BSF at 10 µM [1] | also measured |
| --- | --- | --- | --- | --- | --- | --- | --- |
| O=c1c2ccccc2[se]n1-c1ccccc1 [Ebselen, 2-phenyl-1,2-benzisoselenazol-3(2H)-one, reference compound] | 2.9 ± 0.28 µM | 51 ± 0.16% | 97.8 ± 0.1% | 4.1 ± 0.4 µM | 0.05 ± 0.03 µM |  | Ki (TbHK1 [2]): 6.13 µM; Nature of TbHK1 inhibition (TbHK1 [2]; with respect to ATP): mixed inhibitors; IC50 [4]: 430 ± 20 nM; Brain levels as percent of plasma levels [6]: 21%; Serum values ([6]; single oral dose (100 mg/kg)): 4 to 5 µM; Reduction in cellular G6P ([8]; 1 hour, 10 times the EC50 (30 µM ebselen, 1 µM SID 17387000), versus untreated parasites): 56%; Reduction in cellular G6P ([8]; 4 hours, 10 times the EC50 (30 µM ebselen, 1 µM SID 17387000), versus untreated parasites): 70% |
| CCOC(=O)Cc1csc(-n2sc3ccccc3c2=O)n1 [SID 3716597] | > 10 µM | 27 ± 0.08% | 7.8 ± 7.1% | > 12.5 µM | 9.3 ± 0.3 µM | not toxic |  |
| CCCCCCCCCCCNC(=O)c1ccoc1C [SID 14728414] | > 10 µM | 0% | 1.9 ± 7% | > 12.5 µM | 41.7 ± 3 µM | not toxic | % Inhibition of hGlck (10 µM) ([5]; 10 µM compound): minimal impact on the enzyme; Fold less potent upon resupply (TbHK1 IC50 versus cherry-picked compound) (TbHK1 [7]): 6.6 fold |
| O=C(Cn1sc2ccccc2c1=O)NC12CC3CC(CC(C3)C1)C2 [SID 16952891] | 0.3 ± 0.079 µM | 47 ± 0.15% | 44.9 ± 9.9% | > 12.5 µM | 2.6 ± 0.2 µM |  |  |
| COC1=C/C(=C/C(C#N)=C2/NC3=C(CCCC3)S2)C=CC1=O [SID 17386310] | 0.038 ± 0.0038 µM | 50 ± 0.15% | 70.3 ± 3.6% | 2.6 ± 0.1 µM | 33.6 ± 10.2 µM |  | % Inhibition of hGlck (10 µM) ([5]; 10 µM compound): more potent inhibitor; Fold less potent upon resupply (TbHK1 IC50 versus cherry-picked compound) (TbHK1 [7]): 7.5 fold |
| O=c1c2ccccc2sn1-c1ccccc1 [SID 17387000, 2-phenyl-1,2-benzisothiazol-3(2H)-one] |  |  |  |  |  |  | EC50 [1, 14]: 0.03 ± 0.067 µM; inhibition at 10 µM [3]: 48 ± 0.15%; inhibition at 10 µM [5]: 6.7 ± 9.4%; EC50 (Leishmania promastigotes; read-out: L. major EC50 (µM)): 1.9 ± 0.2 µM; Reduction in cellular G6P [8]: 29% and 18% |
| C/C(=C/CCC(C)[C@H]1CC[C@@]2(C)C3=C(CC[C@]12C)[C@@]1(C)CCC(=O)C(C)(C)[C@@H]1CC3)C(=O)O (some centres unmarked) [SID 22401406] | > 10 µM | 0% | 0% | > 12.5 µM |  | not toxic | % Inhibition of hGlck (10 µM) ([5]; 10 µM compound): minimal impact on the enzyme; IC50 (TbHK1 [7]): 2.3 ± 0.3 µM |
| Cc1ccccc1-n1sc2cc(F)ccc2c1=O [SID 24785302] | 0.042 ± 0.0028 µM | 47 ± 0.15% | 6.9 ± 4.2% | 1.9 ± 0.2 µM | 4.2 ± 1 µM |  |  |
| COc1ccc(C(=O)Nc2cc(Cl)ccc2C(=O)O)cc1 [SID 24797131] | > 10 µM | 0% | 6.3 ± 8.8% | > 12.5 µM | 11.4 ± 3.2 µM | not toxic |  |
| O=c1c2ccccc2sn1-c1nccs1 [SID 24830882] |  |  | 88.8 ± 4.9% |  |  |  | EC50 [1, 14]: 0.83 ± 0.2 µM; inhibition at 10 µM [3]: 8.6 ± 0.03%; EC50 (Leishmania promastigotes; read-out: L. major EC50 (µM)): > 12.5 µM; IC50 (TbHK1 [7]): 16.9 ± 0.1 µM |
| O=c1c(O)c(-c2cc(O)c(O)c(O)c2)oc2cc(O)cc(O)c12 [myricetin, reference compound] |  |  |  |  |  |  | inhibition at 10 µM (TbHK1 [7]; 10 µM, LOPAC validation screen, duplicate, read-out: Inhibition of TbHK1 enzymatic activity at 10 µM (LOPAC screen)): ≥ 40% |
| O=c1c(O)c(-c2ccc(O)c(O)c2)oc2cc(O)cc(O)c12 [quercetin] |  |  |  |  |  |  | IC50 (TbHK1 [9]): ~85 µM |
